Test results: article PMC3388080 (PLoS ONE, 2012)

Experiments:
Format in all cases: in vivo, rat
[1] = tested on: male Sprague-Dawley rats; assay: Rodent EEG studies, all three studies together
Procedure: (§1) All rodent electroencephalograph (EEG) studies were performed at SRI International. Three groups of eight male Sprague-Dawley rats (300±25 g; Charles River, Wilmington, MA) were implanted with chronic recording devices (F40-EET, Data Sciences Inc., St Paul, MN) for continuous recordings of EEG, electromyograph (EMG), core body temperature (Tcore), and LMA via telemetry as previously described. Data recording and scoring were performed as previously reported (see also Supplemental Material and Methods). The EEG and EMG data were scored in 10 sec epochs for waking (W), rapid eye movement sleep (REM), and non-REM sleep (NR). Tcore and LMA (counts per minute) were analyzed as hourly means. Data from the EEG studies are reported in hourly means such that the hourly time ZT1 refers to the hour between time points ZT0 and ZT1.
(§2) For each of the three separate studies, a repeated measures counter-balanced design was employed in which each rat received five separate dosings. […] All dosings were administered ip in a volume of 2 ml/kg. A minimum of 3 d elapsed between doses. Dosing occurred during the middle of the rats’ normal active period at the start of ZT19 and was typically completed within 10 min. Animals were continuously recorded for 6 h prior to dosing and for 18 h following dosing.

[2] = tested on: male Sprague-Dawley rats; assay: EEG/EMG/Tcore/LMA telemetry sleep study 1 (SB-334867 vs ZOL); settings: 7.5 mg/kg ip
Procedure: as §1, §2

[3] = tested on: male Sprague-Dawley rats; assay: EEG/EMG/Tcore/LMA telemetry sleep study 3 (almorexant vs ZOL); settings: ZOL 10 mg/kg ip
Procedure: as §1, §2

[4] = tested on: male Sprague-Dawley rats; assay: EEG/EMG/Tcore/LMA telemetry sleep study 2 (EMPA vs ZOL); settings: ZOL 10 mg/kg ip
Procedure: as §1, §2

Compound: Cc1ccc(-c2nc3ccc(C)cn3c2CC(=O)N(C)C)cc1 [ZOL, N,N,6-Trimehtyl-2-(methylphenyl)-imidazol[1,2-a]pyridine-3-acetamide]
- NR latency (in words) ([1]; ZOL 7.5 or 10 mg/kg ip, all three experiments): decrease in NR latency
- cumulative NR (in words) ([1]; all three experiments): increased cumulative NR
- cumulative REM (in words) ([1]; all three experiments): decreased cumulative REM
- Tcore (in words) ([1]; all three studies, followed by rebound increase in the light period): largest declines in Tcore
- EEG delta power during NR (in words) ([1]; compared to vehicle control): significant effects on EEG delta power during NR
- NR bout duration ([2]; 6 h Average): 1.63 ± 0.07
- REM bout duration ([2]; 6 h Average): 0.99 ± 0.09
- W bout duration ([2]; 6 h Average): 4.50 ± 0.41
- Number of NR bouts ([2]; 6 h Total): 62.88 ± 3.98
- Number of REM bouts ([2]; 6 h Total): 13.13 ± 1.32
- Number of W bouts ([2]; 6 h Total): 56.0 ± 4.43
- NR bout duration ([2]; ZT19): 3.33 ± 0.78
- Number of NR bouts ([2]; ZT19): 7.50 ± 1.43
- Number of REM bouts ([2]; ZT19): 1.38 ± 0.46
- Number of W bouts ([2]; ZT19): 6.75 ± 1.31
- REM bout duration ([2]; ZT19): 0.77 ± 0.20
- NR bout duration ([2]; ZT20): 2.95 ± 0.43
- Number of NR bouts ([2]; ZT20): 7.75 ± 1.29
- Number of REM bouts ([2]; ZT20): 0.88 ± 0.48
- Number of W bouts ([2]; ZT20): 6.00 ± 0.82
- REM bout duration ([2]; ZT20): 0.76 ± 0.19
- NR bout duration ([2]; ZT21): 1.87 ± 0.20
- Number of NR bouts ([2]; ZT21): 17.25 ± 2.00
- Number of REM bouts ([2]; ZT21): 4.50 ± 0.78
- Number of W bouts ([2]; ZT21): 12.00 ± 1.95
- REM bout duration ([2]; ZT21): 1.28 ± 0.11
- W bout duration ([2]; ZT21): 2.44 ± 0.75
- NR bout duration ([2]; ZT22): 1.01 ± 0.10
- Number of NR bouts ([2]; ZT22): 14.88 ± 1.88
- Number of REM bouts ([2]; ZT22): 1.25 ± 0.75
- Number of W bouts ([2]; ZT22): 14.75 ± 2.49
- W bout duration ([2]; ZT22): 3.30 ± 0.66
- NR bout duration ([2]; ZT23): 0.82 ± 0.10
- Number of NR bouts ([2]; ZT23): 7.25 ± 1.06
- Number of REM bouts ([2]; ZT23): 1.00 ± 0.38
- Number of W bouts ([2]; ZT23): 7.75 ± 1.19
- REM bout duration ([2]; ZT23): 0.72 ± 0.26
- NR bout duration ([2]; ZT24): 0.84 ± 0.09
- Number of NR bouts ([2]; ZT24): 8.25 ± 1.75
- Number of W bouts ([2]; ZT24): 7.88 ± 1.63
- REM bout duration ([2]; ZT24): 0.86 ± 0.24
- W bout duration ([2]; ZT24): 12.51 ± 0.82
- NR bout duration ([3]; 6 h Average): 1.99 ± 0.16
- REM bout duration ([3]; 6 h Average): 0.97 ± 0.12
- W bout duration ([3]; 6 h Average): 2.88 ± 0.16
- Number of NR bouts ([3]; 6 h Total): 77.63 ± 3.56
- Number of REM bouts ([3]; 6 h Total): 7.38 ± 1.68
- Number of W bouts ([3]; 6 h Total): 68.00 ± 4.23
- NR bout duration ([3]; ZT19): 3.53 ± 0.71
- Number of REM bouts ([3]; ZT19): 0.50 ± 0.27
- Number of W bouts ([3]; ZT19): 8.75 ± 1.56
- REM bout duration ([3]; ZT19): 0.33 ± 0.10
- W bout duration ([3]; ZT19): 4.15 ± 0.82
- NR bout duration ([3]; ZT20): 2.90 ± 0.19
- Number of NR bouts ([3]; ZT20): 11.63 ± 1.36
- Number of REM bouts ([3]; ZT20): 0.50 ± 0.38
- Number of W bouts ([3]; ZT20): 10.00 ± 0.71
- REM bout duration ([3]; ZT20): 2.25 ± 0.25
- W bout duration ([3]; ZT20): 2.31 ± 0.33
- NR bout duration ([3]; ZT21): 2.84 ± 0.34
- Number of NR bouts ([3]; ZT21): 11.88 ± 1.60
- Number of W bouts ([3]; ZT21): 10.25 ± 1.56
- W bout duration ([3]; ZT21): 2.69 ± 0.42
- NR bout duration ([3]; ZT22): 2.27 ± 0.44
- Number of NR bouts ([3]; ZT22): 13.50 ± 1.88
- Number of REM bouts ([3]; ZT22): 2.50 ± 0.82
- Number of W bouts ([3]; ZT22): 10.50 ± 1.21
- W bout duration ([3]; ZT22): 3.13 ± 0.59
- NR bout duration ([3]; ZT23): 1.29 ± 0.20
- Number of NR bouts ([3]; ZT23): 17.25 ± 3.27
- Number of REM bouts ([3]; ZT23): 1.75 ± 0.41
- Number of W bouts ([3]; ZT23): 15.13 ± 3.17
- W bout duration ([3]; ZT23): 3.85 ± 1.44
- NR bout duration ([3]; ZT24): 1.03 ± 0.12
- Number of NR bouts ([3]; ZT24): 13.13 ± 2.37
- Number of REM bouts ([3]; ZT24): 1.00 ± 0.42
- Number of W bouts ([3]; ZT24): 12.63 ± 2.40
- REM bout duration ([3]; ZT24): 0.66 ± 0.29
- W bout duration ([3]; ZT24): 4.15 ± 0.83
- NR bout duration ([4]; 6 h Average): 1.80 ± 0.13
- REM bout duration ([4]; 6 h Average): 0.88 ± 0.07
- W bout duration ([4]; 6 h Average): 3.94 ± 0.29
- Number of NR bouts ([4]; 6 h Total): 73.70 ± 4.34
- Number of REM bouts ([4]; 6 h Total): 12.10 ± 1.30
- Number of W bouts ([4]; 6 h Total): 55.80 ± 3.84
- NR bout duration ([4]; ZT19): 3.89± 0.68
- Number of NR bouts ([4]; ZT19): 8.90 ± 1.06
- Number of REM bouts ([4]; ZT19): 0.60± 0.31
- Number of W bouts ([4]; ZT19): 8.10± 0.97
- REM bout duration ([4]; ZT19): 0.65± 0.16
- W bout duration ([4]; ZT19): 3.64± 0.51
- NR bout duration ([4]; ZT20): 3.13± 0.44
- Number of NR bouts ([4]; ZT20): 11.60± 1.38
- Number of REM bouts ([4]; ZT20): 1.10± 0.48
- Number of W bouts ([4]; ZT20): 8.60± 1.59
- REM bout duration ([4]; ZT20): 0.96± 0.27
- W bout duration ([4]; ZT20): 3.23± .037
- NR bout duration ([4]; ZT21): 1.81± 0.27
- Number of NR bouts ([4]; ZT21): 16.40± 2.10
- Number of REM bouts ([4]; ZT21): 3.30± 0.75
- Number of W bouts ([4]; ZT21): 11.00± 1.74
- REM bout duration ([4]; ZT21): 0.66± 0.09
- W bout duration ([4]; ZT21): 3.10± .059
- NR bout duration ([4]; ZT22): 1.34± 0.17
- Number of NR bouts ([4]; ZT22): 16.10± 1.11
- Number of REM bouts ([4]; ZT22): 4.80± 0.55
- Number of W bouts ([4]; ZT22): 12.10± 0.85
- REM bout duration ([4]; ZT22): 0.97± 0.10
- W bout duration ([4]; ZT22): 2.59± 0.31
- NR bout duration ([4]; ZT23): 0.98± 0.11
- Number of NR bouts ([4]; ZT23): 13.00± 1.64
- Number of REM bouts ([4]; ZT23): 1.90± 0.35
- Number of W bouts ([4]; ZT23): 8.90± 1.15
- W bout duration ([4]; ZT23): 5.59 ±0.93
- NR bout duration ([4]; ZT24): 0.92± 0.20
- Number of NR bouts ([4]; ZT24): 7.50± 1.58
- Number of REM bouts ([4]; ZT24): 0.40± 0.22
- Number of W bouts ([4]; ZT24): 6.20± 1.31
- REM bout duration ([4]; ZT24): 0.58± 0.14
- W bout duration ([4]; ZT24): 12.90± 3.56
